Results taken from US6967244B1 (priority 1988, dated 2005).
Entries after “also recorded” stand apart in the source; their conditions may differ. Read-outs that look alike come from different tables or passages of the source.

Legend:
[1] = biological target: T1, nAChR formed after the injection of alpha2 and beta2 mRNAs (Rattus norvegicus, UniProt P12389+P12390); format: cell-based
T1 construct: only the HYP16 clone contains an open reading frame for the entire alpha2 protein; expressed in transfected cells; host or cells: Xenopus oocytes injected with in vitro transcribed mRNA
Experimental: (§1) Mature Xenopus laevis (Xenopus I, Madison, Wis.) were used as the source of oocytes. Oocytes were treated with 1 mg/ml type II collagenase (Sigma Chemical Co., St. Louis, Mo.) for two hours at room temperature. The ovarian epithelium and follicle cells were then removed by manual dissection. Each oocyte was injected with 0.5 to 5 ng of RNA transcribed and capped with diguanosine triphosphate in vitro, in a 50 nl volume of water. Injected oocytes were incubated in Barth's saline at 20° C. prior to electrophysiological recordings.
(§2) Recordings were obtained from oocytes placed in a groove at the base of a narrow perspex chamber of 0.5 ml volume. Oocytes were perfused at up to 40 ml/min. with a control solution that consisted of 10 mM HEPES (pH 7.2), 115 mM NaCl, 1.8 mM CaCl2 2.5 mM KCl, and […] atropine. Then oocytes were perfused with agonists or antagonists (added to the control perfusing solution), followed by a wash with control solution. Voltage recordings were made with the bridge circuit of the Dagan 8500 voltage clamp unit on oocytes injected 2–7 days previously. The recordings were obtained at room temperature (20–25° C.) with micropipettes filled with 3M KCl. A resting potential more negative than −30 mV was required for inclusion of a particular oocyte in these studies.
The PCX49 clone is derived from the beta2 gene and is believed to encode a non-agonist-binding subunit. (Boulter, et al., 1987; Deneris, et al., 1988). […] We tested whether oocytes injected with either alpha2 (n=22) or beta2 (n=21) mRNA alone would produce a depolarizing response to ACh.

[2] = biological target: T2, receptor from mouse muscle alpha1, gamma, delta and beta2 mRNAs (Mus musculus, UniProt P02716+P04756+P04760); format: cell-based, mouse/rat
T2 construct: expressed in transfected cells; host or cells: Xenopus laevis oocytes injected with in vitro transcribed capped RNA
Experimental: (§3) To examine this hypothesis, a test was made to determine whether the beta2 subunit could substitute for one of the mouse muscle receptor subunits. This was done by injecting into Xenopus oocytes various combinations of mRNA encoding the beta2 subunit and the muscle receptor subunits (α1, β1, […], and δ).
as §1, §2
Experiment 1: Oocytes taken from the same animal were injected at the same time with equivalent amounts of the indicated mRNA combinations. […] Values presented are means±S.E. (n=6).
Values, presented are means±S.E. (n=5). The complete set of mouse muscle mRNAs were not tested in this experiment.

[3] = biological target: T3, alpha3 + beta2 neuronal nicotinic acetylcholine receptor (Rattus norvegicus, UniProt P04757+P12390); format: cell-based
T3 construct: a complete signal peptide and the entire mature protein; expressed in transfected cells; host or cells: Xenopus laevis oocytes injected with in vitro transcribed capped RNA

[4] = biological target: T4, alpha4 + beta2 neuronal nicotinic acetylcholine receptor (Rattus norvegicus, UniProt P09483+P12390); format: cell-based
T4 construct: linker-coded start (ATG and a few residues from a synthetic EcoRI/HindIII linker) (N); expressed in transfected cells; host or cells: Xenopus laevis oocytes injected with in vitro transcribed capped RNA

PC12 cell receptor = biological target: T5, PC12 cell receptor (Rattus norvegicus, UniProt P04757); settings: cited from earlier work
T5 construct: endogenous in cells; host or cells: PC12 (rat pheochromocytoma) cells

[5] = biological target: mouse muscle nicotinic acetylcholine receptor α1β1γδ (Mus musculus, UniProt P02716+P04756+P04760); format: cell-based
Experimental: as §3, §1
as §2, with “The recordings were obtained at room temperature (20–25° C.) with micropipettes filled with 3M KCl. A resting potential more negative than −30 mV was required for inclusion of a particular oocyte in these studies.” left out

T3 sequence (P12390 25-500): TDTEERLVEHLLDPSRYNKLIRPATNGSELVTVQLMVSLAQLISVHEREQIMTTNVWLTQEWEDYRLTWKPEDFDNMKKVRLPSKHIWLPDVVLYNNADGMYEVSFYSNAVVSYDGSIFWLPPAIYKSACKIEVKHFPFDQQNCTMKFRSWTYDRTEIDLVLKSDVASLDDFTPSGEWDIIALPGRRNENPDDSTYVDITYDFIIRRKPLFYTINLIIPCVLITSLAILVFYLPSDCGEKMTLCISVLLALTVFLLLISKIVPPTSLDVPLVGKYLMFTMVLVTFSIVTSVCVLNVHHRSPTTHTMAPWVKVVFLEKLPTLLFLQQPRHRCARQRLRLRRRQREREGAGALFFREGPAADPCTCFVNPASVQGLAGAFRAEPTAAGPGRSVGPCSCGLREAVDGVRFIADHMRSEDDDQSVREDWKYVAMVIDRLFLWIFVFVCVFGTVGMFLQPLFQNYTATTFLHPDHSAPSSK
T3 sequence (P04757 26-499): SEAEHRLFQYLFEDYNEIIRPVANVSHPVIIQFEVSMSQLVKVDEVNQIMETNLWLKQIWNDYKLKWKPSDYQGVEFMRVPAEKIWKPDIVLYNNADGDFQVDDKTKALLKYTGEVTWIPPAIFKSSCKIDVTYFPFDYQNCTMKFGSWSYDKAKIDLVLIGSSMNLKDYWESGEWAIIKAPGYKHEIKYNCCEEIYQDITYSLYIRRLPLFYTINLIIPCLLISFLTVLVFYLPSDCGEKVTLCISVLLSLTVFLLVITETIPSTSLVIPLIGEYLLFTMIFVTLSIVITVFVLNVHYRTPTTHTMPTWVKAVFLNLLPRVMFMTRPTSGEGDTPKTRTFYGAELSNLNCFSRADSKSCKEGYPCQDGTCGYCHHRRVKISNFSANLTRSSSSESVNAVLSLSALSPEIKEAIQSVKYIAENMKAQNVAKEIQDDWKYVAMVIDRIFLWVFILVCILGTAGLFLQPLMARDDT
T4 sequence (P12390 25-500): as the sequence (P12390 25-500) above
T4 sequence (P09483 31-630): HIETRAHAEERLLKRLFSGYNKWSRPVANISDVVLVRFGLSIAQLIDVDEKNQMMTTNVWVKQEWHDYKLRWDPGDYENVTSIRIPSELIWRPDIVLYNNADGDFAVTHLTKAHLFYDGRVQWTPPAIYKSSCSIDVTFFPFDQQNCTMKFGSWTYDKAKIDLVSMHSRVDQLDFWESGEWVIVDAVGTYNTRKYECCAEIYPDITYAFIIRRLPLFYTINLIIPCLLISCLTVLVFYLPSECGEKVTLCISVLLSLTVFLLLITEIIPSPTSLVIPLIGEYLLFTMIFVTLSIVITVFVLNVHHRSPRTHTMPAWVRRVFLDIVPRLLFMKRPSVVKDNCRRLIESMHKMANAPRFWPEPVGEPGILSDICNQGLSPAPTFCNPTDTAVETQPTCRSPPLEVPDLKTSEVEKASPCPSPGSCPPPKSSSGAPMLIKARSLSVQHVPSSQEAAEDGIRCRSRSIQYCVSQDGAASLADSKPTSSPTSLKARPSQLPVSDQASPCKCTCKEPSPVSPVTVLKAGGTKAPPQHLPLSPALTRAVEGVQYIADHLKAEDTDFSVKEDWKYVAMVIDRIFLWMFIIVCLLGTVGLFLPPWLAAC
T1 sequence (P12390 25-500): as the sequence (P12390 25-500) above
T1 sequence (P12389 28-511): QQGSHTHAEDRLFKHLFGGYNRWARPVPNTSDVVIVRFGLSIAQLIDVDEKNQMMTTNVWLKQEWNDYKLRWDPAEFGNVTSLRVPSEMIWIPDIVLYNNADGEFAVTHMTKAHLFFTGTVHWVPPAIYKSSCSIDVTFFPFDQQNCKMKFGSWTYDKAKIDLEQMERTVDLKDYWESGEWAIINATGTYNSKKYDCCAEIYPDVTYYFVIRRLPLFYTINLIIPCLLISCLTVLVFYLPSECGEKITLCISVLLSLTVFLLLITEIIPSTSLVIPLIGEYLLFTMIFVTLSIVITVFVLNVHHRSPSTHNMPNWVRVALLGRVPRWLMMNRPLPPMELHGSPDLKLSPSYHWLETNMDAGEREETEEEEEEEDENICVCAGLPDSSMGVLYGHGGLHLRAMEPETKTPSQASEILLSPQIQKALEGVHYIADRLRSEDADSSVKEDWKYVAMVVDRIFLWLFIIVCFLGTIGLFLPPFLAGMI
T2 sequence (P04760 23-519): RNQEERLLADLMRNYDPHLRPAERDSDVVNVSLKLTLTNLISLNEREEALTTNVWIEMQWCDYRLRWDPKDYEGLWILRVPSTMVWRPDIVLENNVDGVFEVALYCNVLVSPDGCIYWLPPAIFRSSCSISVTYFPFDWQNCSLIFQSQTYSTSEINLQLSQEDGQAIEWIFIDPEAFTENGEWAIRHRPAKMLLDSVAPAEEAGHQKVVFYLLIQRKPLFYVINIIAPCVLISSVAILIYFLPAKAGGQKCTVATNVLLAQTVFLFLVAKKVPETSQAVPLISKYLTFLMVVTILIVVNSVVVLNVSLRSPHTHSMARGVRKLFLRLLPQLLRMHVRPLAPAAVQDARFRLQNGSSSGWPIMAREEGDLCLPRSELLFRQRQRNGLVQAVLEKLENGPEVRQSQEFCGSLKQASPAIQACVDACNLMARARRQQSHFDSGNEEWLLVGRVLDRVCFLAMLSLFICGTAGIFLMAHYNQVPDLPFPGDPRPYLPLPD
T2 sequence (P12390 25-500, further chain): as the sequence (P12390 25-500) above
T2 sequence (P04756 21-457): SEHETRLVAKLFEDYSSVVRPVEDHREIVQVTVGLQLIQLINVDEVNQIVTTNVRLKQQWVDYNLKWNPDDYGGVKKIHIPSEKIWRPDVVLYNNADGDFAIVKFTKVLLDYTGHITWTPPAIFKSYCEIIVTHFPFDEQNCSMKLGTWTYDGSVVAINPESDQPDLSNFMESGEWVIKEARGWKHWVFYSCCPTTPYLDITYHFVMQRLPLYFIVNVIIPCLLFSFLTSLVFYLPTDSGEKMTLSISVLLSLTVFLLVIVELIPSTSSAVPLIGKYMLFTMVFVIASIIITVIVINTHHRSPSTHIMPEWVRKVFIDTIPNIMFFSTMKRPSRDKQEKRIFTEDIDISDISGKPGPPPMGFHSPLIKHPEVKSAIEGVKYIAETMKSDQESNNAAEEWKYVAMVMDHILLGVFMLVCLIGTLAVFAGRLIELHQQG
T2 sequence (P02716 25-520): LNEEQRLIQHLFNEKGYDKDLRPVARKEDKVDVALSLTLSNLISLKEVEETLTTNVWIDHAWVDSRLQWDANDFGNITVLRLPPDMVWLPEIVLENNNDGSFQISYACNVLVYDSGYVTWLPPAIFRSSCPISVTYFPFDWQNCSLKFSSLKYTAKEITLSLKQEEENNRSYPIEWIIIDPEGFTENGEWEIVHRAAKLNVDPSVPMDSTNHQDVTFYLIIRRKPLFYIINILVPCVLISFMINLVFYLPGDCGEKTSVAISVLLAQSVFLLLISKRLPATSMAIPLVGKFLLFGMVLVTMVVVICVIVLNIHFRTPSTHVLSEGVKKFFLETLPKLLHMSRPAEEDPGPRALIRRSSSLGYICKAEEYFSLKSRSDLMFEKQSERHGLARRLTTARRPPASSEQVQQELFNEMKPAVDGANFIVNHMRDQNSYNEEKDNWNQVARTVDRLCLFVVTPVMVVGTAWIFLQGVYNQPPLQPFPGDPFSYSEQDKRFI
T5 sequence (P04757 26-499): as the sequence (P04757 26-499) above
mouse muscle nicotinic acetylcholine receptor α1β1γδ, sequence (P04760 23-519): as the sequence (P04760 23-519) above
mouse muscle nicotinic acetylcholine receptor α1β1γδ, sequence (P09690 24-501, further chain): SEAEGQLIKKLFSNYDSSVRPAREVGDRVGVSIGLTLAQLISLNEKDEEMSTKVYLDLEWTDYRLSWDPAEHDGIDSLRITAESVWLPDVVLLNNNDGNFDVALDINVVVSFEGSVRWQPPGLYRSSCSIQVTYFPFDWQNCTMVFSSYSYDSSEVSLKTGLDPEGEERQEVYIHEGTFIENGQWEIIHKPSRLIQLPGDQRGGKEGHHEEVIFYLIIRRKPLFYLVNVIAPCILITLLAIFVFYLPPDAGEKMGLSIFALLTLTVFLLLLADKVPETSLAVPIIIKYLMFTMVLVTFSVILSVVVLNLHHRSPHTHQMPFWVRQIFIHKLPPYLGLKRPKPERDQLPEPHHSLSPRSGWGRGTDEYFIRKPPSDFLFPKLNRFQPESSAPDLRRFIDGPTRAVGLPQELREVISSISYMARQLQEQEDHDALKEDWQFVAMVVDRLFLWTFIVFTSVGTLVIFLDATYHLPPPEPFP
mouse muscle nicotinic acetylcholine receptor α1β1γδ, sequence (P02716 25-520): as the sequence (P02716 25-520) above
mouse muscle nicotinic acetylcholine receptor α1β1γδ, sequence (P04756 21-457): as the sequence (P04756 21-457) above

Compound: C[N+](C)(C)CCCCCC[N+](C)(C)C [hexamethonium]
- Blockade of the acetylcholine response by antagonist or toxin [1]: could be blocked
- Δ (mV) Agonist + Antagonist ([1]; Ach 1 μM + antagonist 100 μM, n=4): +0.4 ± 0.4 mV

Compound: CN1CCCC1c1cccnc1 (centres unmarked) [nicotine]
- Depolarizing response to nicotine [1]: strong and reproducible depolarizing responses; also recorded: elicited a depolarizing response
- Depolarizations elicited by nicotine [2]: depolarizations could be elicited
- Depolarizing response to nicotine [3]: strong and reproducible membrane depolarizations; also recorded: depolarizing responses
- Depolarizing response to nicotine [4]: strong and reproducible membrane depolarizations; also recorded: depolarizing responses

Compound: α-bungarotoxin
- Functional block of the receptor by toxin (PC12 cell receptor): neither of these receptors are functionally blocked
- Block of the receptor by toxin [5]: blocked
- Δ, mV After Toxin [1]: +32 ± 2 mV
- Block of the response to acetylcholine [2]: completely blocked
- Functional blockade of the acetylcholine response by toxin [3]: neither of these receptors are functionally blocked; also recorded: resistant
- Δ, mV After Toxin [3]: 24.8 ± 3.3 mV
- Functional blockade of the acetylcholine response by toxin [4]: resistant
- Δ, mV After Toxin [4]: 32.7 ± 6.4 mV

Compound: COc1cc2c3cc1Oc1cc(ccc1O)C[C@@H]1c4c(cc(OC)c(O)c4Oc4ccc(cc4)C[C@@H]3N(C)CC2)CC[N+]1(C)C [d-tubocurarine]
- Blockade of the acetylcholine response by antagonist or toxin [1]: could be blocked
- Δ (mV) Agonist + Antagonist ([1]; Ach 5 μM + antagonist 100 μM, n=3): +2.0 ± 0.4 mV
- Block of depolarizations ([2]; alpha1, beta2, gamma, delta mRNAs, 100 mM d-tubocurarine): blocked
